Test results from patent US8618111B2, “5-alkynyl-pyrimidines” (Boehringer Ingelheim International GmbH, priority 2010, dated 2013).

Tests used:
[1] = tested on: PC3 (human prostate carcinoma cell line) cells; experiment: PC3 proliferation test; format: cell-based; details: PC-3, 72 h, 3 days incubation, DNA dye fluorescence
Procedure: The test is based on measurement of cellular DNA content via fluorescent dye binding. Because cellular DNA content is highly regulated, it is closely proportional to cell number. The extent of proliferation is determined by comparing cell counts for samples treated with drugs with untreated controls.
PC3 (human prostate carcinoma cell line) cells are sown in microtitre plates and incubated overnight in culture medium at 37° C. and 5% CO2. The test substances are diluted stepwise and added to the cells such that the total volume is 200 μL/well. Cells to which diluent, but not substance, is added serve as controls.

PI3Kalpha = PI3Kalpha (Homo sapiens (Human), UniProt P42336); experiment: Inhibition of PI3Kalpha-induced PIP-2 phosphorylation (filter-binding assay); format: biochemical; details: 33P-ATP
Sequence of PI3Kalpha (P42336 whole entry, species assumed): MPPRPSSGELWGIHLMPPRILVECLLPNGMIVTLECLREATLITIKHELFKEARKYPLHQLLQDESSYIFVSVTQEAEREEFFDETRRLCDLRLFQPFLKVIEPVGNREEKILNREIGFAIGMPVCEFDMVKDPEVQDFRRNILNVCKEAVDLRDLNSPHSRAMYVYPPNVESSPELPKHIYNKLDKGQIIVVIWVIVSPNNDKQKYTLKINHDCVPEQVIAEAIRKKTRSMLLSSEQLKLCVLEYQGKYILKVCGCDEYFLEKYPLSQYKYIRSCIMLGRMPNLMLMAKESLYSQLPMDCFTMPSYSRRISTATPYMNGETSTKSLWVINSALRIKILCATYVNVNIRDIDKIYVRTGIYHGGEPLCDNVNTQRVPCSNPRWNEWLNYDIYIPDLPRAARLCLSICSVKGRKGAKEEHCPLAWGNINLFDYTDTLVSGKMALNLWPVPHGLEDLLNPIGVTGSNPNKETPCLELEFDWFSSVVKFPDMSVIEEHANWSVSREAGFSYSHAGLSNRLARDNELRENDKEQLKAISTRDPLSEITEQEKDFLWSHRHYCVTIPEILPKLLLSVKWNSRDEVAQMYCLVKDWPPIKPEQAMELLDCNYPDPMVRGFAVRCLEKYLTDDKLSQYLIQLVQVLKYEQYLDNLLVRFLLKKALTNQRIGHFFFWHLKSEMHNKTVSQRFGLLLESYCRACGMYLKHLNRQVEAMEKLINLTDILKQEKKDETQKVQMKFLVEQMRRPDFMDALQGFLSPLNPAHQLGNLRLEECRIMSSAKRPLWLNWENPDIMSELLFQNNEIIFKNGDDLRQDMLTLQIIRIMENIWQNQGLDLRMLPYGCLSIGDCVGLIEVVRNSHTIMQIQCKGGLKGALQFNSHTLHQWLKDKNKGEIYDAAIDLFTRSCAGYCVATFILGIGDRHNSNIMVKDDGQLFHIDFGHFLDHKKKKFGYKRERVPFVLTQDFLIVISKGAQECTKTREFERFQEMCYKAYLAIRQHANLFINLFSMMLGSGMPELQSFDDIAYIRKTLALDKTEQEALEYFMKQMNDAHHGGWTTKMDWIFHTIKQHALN
Sequence of PI3Kalpha (P27986 whole entry partner, species assumed): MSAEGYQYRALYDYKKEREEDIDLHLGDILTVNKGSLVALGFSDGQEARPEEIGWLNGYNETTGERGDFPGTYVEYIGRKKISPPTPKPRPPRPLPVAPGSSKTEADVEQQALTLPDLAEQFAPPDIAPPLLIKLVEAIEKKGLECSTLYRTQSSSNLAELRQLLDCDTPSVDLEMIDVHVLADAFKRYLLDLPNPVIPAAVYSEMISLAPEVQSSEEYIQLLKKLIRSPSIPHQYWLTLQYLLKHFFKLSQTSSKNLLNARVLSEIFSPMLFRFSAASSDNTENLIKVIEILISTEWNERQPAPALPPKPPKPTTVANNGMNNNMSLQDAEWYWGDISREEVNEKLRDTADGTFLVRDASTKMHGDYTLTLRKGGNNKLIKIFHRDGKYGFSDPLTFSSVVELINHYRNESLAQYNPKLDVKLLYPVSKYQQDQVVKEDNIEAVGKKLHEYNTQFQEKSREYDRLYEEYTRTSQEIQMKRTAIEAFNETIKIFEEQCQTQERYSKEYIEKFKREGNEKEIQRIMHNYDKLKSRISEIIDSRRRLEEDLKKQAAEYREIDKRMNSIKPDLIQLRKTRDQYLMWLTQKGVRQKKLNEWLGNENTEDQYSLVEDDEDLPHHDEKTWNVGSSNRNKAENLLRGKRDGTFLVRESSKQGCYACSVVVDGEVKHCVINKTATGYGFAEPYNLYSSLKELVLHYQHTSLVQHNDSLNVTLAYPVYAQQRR
Procedure: Inhibition of PI3Kalpha-Induced PIP-2 Phosphorylation
Method Type: Filter-Binding-Assay
Aliquoted in desired amounts and stored at −80° C. Final assay concentration 25 ng/well.

mTOR = mTOR (Homo sapiens (Human), UniProt P42345); experiment: mTOR kinase activity assay (phosphorylation status of mTOR substrate 4E-BP1; TR-FRET); format: biochemical; details: GFP-4E-BP1 substrate, 8 μM ATP
Sequence of mTOR (P42345 1360-2549): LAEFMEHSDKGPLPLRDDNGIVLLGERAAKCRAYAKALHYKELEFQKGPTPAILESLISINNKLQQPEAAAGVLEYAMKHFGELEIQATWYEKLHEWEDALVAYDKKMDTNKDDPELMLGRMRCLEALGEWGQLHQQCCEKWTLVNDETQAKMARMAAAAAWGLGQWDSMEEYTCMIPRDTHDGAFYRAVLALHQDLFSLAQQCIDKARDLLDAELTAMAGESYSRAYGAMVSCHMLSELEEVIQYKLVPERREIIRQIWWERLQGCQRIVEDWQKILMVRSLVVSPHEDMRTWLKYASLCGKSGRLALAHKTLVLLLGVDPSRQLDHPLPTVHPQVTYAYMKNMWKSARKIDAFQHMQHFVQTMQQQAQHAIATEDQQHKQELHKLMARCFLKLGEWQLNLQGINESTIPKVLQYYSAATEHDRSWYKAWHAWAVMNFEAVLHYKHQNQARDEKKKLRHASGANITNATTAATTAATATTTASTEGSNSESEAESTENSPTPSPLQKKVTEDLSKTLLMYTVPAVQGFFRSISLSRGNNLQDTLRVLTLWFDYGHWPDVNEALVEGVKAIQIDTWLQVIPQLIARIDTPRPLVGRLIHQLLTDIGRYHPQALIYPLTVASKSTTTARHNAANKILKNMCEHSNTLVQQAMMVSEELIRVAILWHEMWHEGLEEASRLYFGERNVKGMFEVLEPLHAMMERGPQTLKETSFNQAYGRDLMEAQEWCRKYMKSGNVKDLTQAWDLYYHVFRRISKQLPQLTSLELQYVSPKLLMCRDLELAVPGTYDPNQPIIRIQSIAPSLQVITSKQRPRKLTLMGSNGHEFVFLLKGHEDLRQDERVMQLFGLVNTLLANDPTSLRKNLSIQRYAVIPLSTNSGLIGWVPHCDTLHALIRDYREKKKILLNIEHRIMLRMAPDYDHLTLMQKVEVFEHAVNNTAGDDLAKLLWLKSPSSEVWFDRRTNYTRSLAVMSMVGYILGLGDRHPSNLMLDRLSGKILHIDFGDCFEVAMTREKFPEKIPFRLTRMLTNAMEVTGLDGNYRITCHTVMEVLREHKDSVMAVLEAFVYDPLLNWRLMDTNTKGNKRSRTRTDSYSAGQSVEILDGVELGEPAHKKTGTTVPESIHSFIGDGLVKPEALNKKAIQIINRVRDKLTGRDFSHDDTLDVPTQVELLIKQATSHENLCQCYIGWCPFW
Procedure: mTOR Kinase Activity Assay
(Phosphorylation Status of mTOR Substrate 4E-BP1; TR-FRET)
The mTOR kinase TR-FRET assay utilizes a physiologically relevant protein substrate for mTOR (4E-BP1, labeled with an acceptor fluorophore (Green Fluorescent Protein) and paired with a corresponding Tb-labeled phospho-specific antibody.
The assay itself is divided into two phases: the reaction phase and the detection phase. In the reaction phase, all components required for the kinase reaction are added to the well, including the labeled protein substrate. The reaction is allowed to incubate for 60 minutes. After the reaction, EDTA is added to stop the kinase reaction, and terbium-labeled antibody is added to bind phosphorylated product. Because the terbium chelate is stable at the EDTA concentrations used to stop a kinase assay, the antibody and EDTA can be pre-mixed prior to addition to minimize pipetting steps. Binding of the terbium labeled antibody to the fluorophore-labeled phosphorylated product brings the terbium and GFP into proximity, resulting in an increase in TR-FRET. In the presence of an inhibitor, formation of phosphorylated product is reduced, and the TR-FRET value is decreased.
• GFP-4E-BP1 substrate; Invitrogen order no. PV4759 • Lanthascreen Tb-anti-p4E-BP1 (pThr46) Antibody Kit; Invitrogen order no. PV4758 • FRAP1 (mTOR) kinase; Invitrogen order no.
400 nM GFP-4E-BP1, 8 μM ATP, ˜150 ng/mL mTOR, 50 mM HEPES pH 7.5, 0.01% Polysorbate 20, 1 mM EGTA, 10 mM MnCl2, and variable amounts of test compounds.
Note: Thaw and keep mTOR, the substrate, ATP, and the antibody on ice prior to making working dilutions. Working dilutions of these components can be kept at room temperature for short periods of time the day of use. • 1. Add 2 ml of 5× Assay Buffer to 8 ml water to prepare 10 ml of 1× Assay Buffer, wherein the concentration of 1× Assay Buffer is 50 mM HEPES pH 7.5, 0.01% Polysorbate 20, 1 mM EGTA, and 10 mM MnCl2. • 2. Prepare Antibody/EDTA Solution by first adding 2.75 μl of Tb-anti p4E-BP1 Antibody to 2397 μl of LanthaScreen™ TR-FRET Dilution Buffer. Then, add 100 μl of 0.5 M EDTA. • 3. […] Then, add 1.6 μl of mTOR (0.45 mg/mL). • 4. Prepare ATP Solution by adding 3.2 μl of 10 mM ATP to 1997 μl of 1× Assay Buffer. Serial Dilution of Inhibitors (16 Point Curve)
Inhibitors are serially diluted in DMSO, then diluted to a 4× working concentration with 1× Assay Buffer. • 1. Dispense 40 μl of DMSO to two adjacent columns of a 96 well plate per compound (e.g. columns 1 and 2). • 2. Add 10 μl of inhibitor stock (10 mM) to the first well of the first column (A1) and mix. • 3. Remove 10 μl from A1 and transfer to the adjacent well in the next column (B1) and mix. • 4. Remove 10 μl from B1 and transfer to the next well in the first column (B2) and mix. • 5. […] Remove 4 μl of diluted compounds and add to 96 μl of 1× Assay Buffer in a 96-well plate making 4× compound dilutions. Kinase Reaction • 1. Add 2.5 μl of 4X compound dilutions to a 384-well plate. • 2. […] Preincubate for […] at RT (shaker). • 5. Add 5 μl of ATP Solution to all wells to start reactions. • 6. Shake the assay plate on a plate shaker for 30 seconds. • 7. Incubate the assay plate for one hour at room temperature (20-25° C.). Stop Step and Fluorescence Detection • 1. Add 10 μl of Antibody/EDTA Solution to each well in columns 1-9. • 2. Shake the assay plate on a plate shaker for 30 seconds. • 3. Incubate the assay plate for one hour at room temperature (20-25° C.). • 4. Measure the GFP (FRET) and terbium (reference) emission signals on a fluorescence plate reader (e.g. Perkin Elmer Envision). Data Analysis • 1. Calculate the emission ratio for each sample by dividing the GFP (FRET) signal by the terbium (reference) signal. • 2.

Row | SMILES | EC50 [1] | IC50 PI3Ka (PI3Kalpha) | IC50 (mTOR)
1 | Cc1ncnc(N2CCOC(C)(C)C2)c1C#Cc1ccc(N)nc1 [Example B-1] | 112 nM | 46 nM | 105 nM
2 | COCCN1CCN(c2ncnc(C)c2C#Cc2ccc(N)nc2)CC1 [Example B-2] | 301 nM | 145 nM | 32 nM
3 | Cc1ncnc(N2CC[S+]([O-])CC2)c1C#Cc1ccc(N)nc1 [Example B-3] | 501 nM | 199 nM | 83 nM
4 | Cc1ncnc(N2CCOCC2)c1C#Cc1ccc(N)nc1 [Example B-4] | 319 nM | 37 nM | 38 nM
5 | Cc1ncnc(N2CCN(C3CC3)CC2)c1C#Cc1ccc(N)nc1 [Example B-5] | 118 nM | 58 nM | 10 nM
6 | Cc1ncnc(N2CCCOCC2)c1C#Cc1ccc(N)nc1 [Example B-6] | 441 nM | 246 nM | 72 nM
7 | CC(=O)N1CCCN(c2ncnc(C)c2C#Cc2ccc(N)nc2)CC1 [Example B-7] | 722 nM | 348 nM | 94 nM
8 | Cc1ncnc(N2CCN(C)CC2)c1C#Cc1ccc(N)nc1 [Example B-8] | 277 nM | 547 nM | 56 nM
9 | Cc1ncnc(N2C[C@@H](C)O[C@@H](C)C2)c1C#Cc1ccc(N)nc1 [Example B-9] | 184 nM | 34 nM | 11 nM
10 | Cc1ncnc(N2CCNC(=O)CC2)c1C#Cc1ccc(N)nc1 [Example B-10] | 437 nM | 93 nM | 41 nM
11 | CCc1ncnc(N2CCC(C(C)(C)O)CC2)c1C#Cc1ccc(N)nc1 [Example B-11] | 60 nM | 31 nM | 7 nM
12 | CCc1ncnc(N2CCC(O)(C3CCCCC3)CC2)c1C#Cc1ccc(N)nc1 [Example B-12] | 94 nM | 189 nM | 16 nM
13 | Cc1ncnc(N2CCC(CC(C)(C)O)CC2)c1C#Cc1ccc(N)nc1 [Example B-13] | 51 nM | 29 nM | 18 nM
14 | CCc1ncnc(N2CCC(CC(C)(C)O)CC2)c1C#Cc1ccc(N)nc1 [Example B-14] | 29 nM | 26 nM | 9 nM
15 | CCc1ncnc(N2CCC(C=C(C)C)CC2)c1C#Cc1ccc(N)nc1 [Example B-15] | 202 nM | 622 nM | 64 nM
16 | CCc1ncnc(N2CCC(O)(c3ccccc3)CC2)c1C#Cc1ccc(N)nc1 [Example B-16] | 34 nM | 91 nM | 7 nM
17 | CCc1ncnc(N2CCC(O)(Cc3ccccc3)CC2)c1C#Cc1ccc(N)nc1 [Example B-17] | 129 nM | 115 nM | 74 nM
18 | CCc1ncnc(N2CCC(CCO)CC2)c1C#Cc1ccc(N)nc1 [Example B-18] | 34 nM | 35 nM | 5 nM
19 | CCc1ncnc(N2CCC(O)(C(F)(F)F)CC2)c1C#Cc1ccc(N)nc1 [Example B-19] | 3 nM | 53 nM | 1 nM
20 | CCc1ncnc(N2CCCC(NC(C)=O)C2)c1C#Cc1ccc(N)nc1 (centres unmarked) [Example B-20] | 158 nM | 167 nM | 16 nM
21 | CCc1ncnc(N2CCC(NC(C)=O)CC2)c1C#Cc1ccc(N)nc1 [Example B-21] | 162 nM | 83 nM | 19 nM
22 | CCc1ncnc(N2CCC3(CC2)OCCO3)c1C#Cc1ccc(N)nc1 [Example B-22] | 32 nM | 57 nM | 4 nM
23 | Cc1ncnc(N2CCC(C)(O)CC2)c1C#Cc1ccc(N)nc1 [Example B-23] | 19 nM | – | 7 nM

Row | SMILES | EC50 [1] | IC50 PI3Ka (PI3Kalpha) | IC50 (mTOR)
24 | CC(=O)NC1CCCN(c2ncnc(C)c2C#Cc2ccc(N)nc2)C1 (centres unmarked) [Example B-24] | 352 nM | 158 nM | 46 nM
25 | CCc1ncnc(N2CCC(O)(CC)CC2)c1C#Cc1ccc(N)nc1 [Example B-36] | 20 nM | – | 5 nM
26 | CCOC1CCN(c2ncnc(CC)c2C#Cc2ccc(N)nc2)CC1 [Example B-46] | 72 nM | – | –
27 | Cc1ncnc(N2CCC(=O)CC2)c1C#Cc1ccc(N)nc1 [Example B-65] | 218 nM | – | –
28 | Cc1ncnc(N2CCC(CC(=O)N3CCN(C)CC3)CC2)c1C#Cc1ccc(N)nc1 [Example E-2] | – | 96 nM | 366 nM
29 | Cc1ncnc(N2CCC(CC(=O)N(C)CCN(C)C)CC2)c1C#Cc1ccc(N)nc1 [Example E-3] | – | 2001 nM | 457 nM
30 | Cc1ncnc(N2CCC(CC(=O)NCCN(C)C)CC2)c1C#Cc1ccc(N)nc1 [Example E-8] | – | 149 nM | 261 nM
31 | Cc1ncnc(N2CCC(CNC(=O)CN(C)C)CC2)c1C#Cc1ccc(N)nc1 [Example F-4] | – | 301 nM | 457 nM
32 | Cc1ncnc(N2CCC(CNC(=O)CC(C)C)CC2)c1C#Cc1ccc(N)nc1 [Example F-7] | – | 47 nM | 237 nM
33 | CCc1ncnc(N2CCC3(CCCCC3)CC2)c1C#Cc1ccc(N)nc1 [Example H-3] | – | 369 nM | 333 nM
34 | CCc1ncnc(N2CCNC(=O)C2)c1C#Cc1ccc(N)nc1 [Example H-4] | – | 58 nM | 45 nM
35 | CCc1ncnc(N2CCNC(=O)C2)c1C#Cc1ccc(N)nc1 [Example H-5] | – | 745 nM | 91 nM
36 | CCc1ncnc(N2CCn3c(COC)nnc3C2)c1C#Cc1ccc(N)nc1 [Example H-8] | – | 185 nM | 127 nM
37 | CCc1ncnc(N2CCN(CCN3CCOCC3)CC2)c1C#Cc1ccc(N)nc1 [Example H-9] | – | 449 nM | 1570 nM
38 | CCc1ncnc(N2CCN(C3CCOCC3)CC2)c1C#Cc1ccc(N)nc1 [Example H-12] | – | 141 nM | 77 nM
39 | CCc1ncnc(N2CCN(CCCS(C)(=O)=O)CC2)c1C#Cc1ccc(N)nc1 [Example H-15] | – | 108 nM | 25 nM
40 | CCc1ncnc(N2CCN(C(=O)N3CCOCC3)CC2)c1C#Cc1ccc(N)nc1 [Example H-16] | – | 116 nM | 22 nM
41 | CCc1ncnc(N2CCc3ccccc3C2)c1C#Cc1ccc(N)nc1 [Example H-17] | – | 56 nM | 68 nM
42 | CCc1ncnc(N2CCc3cc(OC)c(OC)cc3C2)c1C#Cc1ccc(N)nc1 [Example H-18] | – | 43 nM | 83 nM
43 | CCc1ncnc(N2CCN(c3ccccc3C(F)(F)F)CC2)c1C#Cc1ccc(N)nc1 [Example H-19] | – | 1861 nM | 2000 nM
44 | CCc1ncnc(N2CCN(C3COC3)CC2)c1C#Cc1ccc(N)nc1 [Example H-26] | – | 105 nM | 47 nM
45 | CCc1ncnc(N2CCc3c(ncnc3N3CCOCC3)C2)c1C#Cc1ccc(N)nc1 [Example H-27] | – | 103 nM | 139 nM
46 | CCc1ncnc(N2CCN(Cc3nc(C)c(C)o3)CC2)c1C#Cc1ccc(N)nc1 [Example H-28] | – | 232 nM | 258 nM
